Data reported in patent publication US8182842B1, “Physico-chemical-managed killing of penicillin-resistant static and growing gram-positive and gram-negative vegetative bacteria” (The United States of America as represented by the …, priority 2010, dated 2012).
Entries after “also recorded” stand apart in the source; their conditions may differ.

Legend:
Pseudomonas aeruginosa = test: kill curve time course of Pseudomonas aeruginosa suspensions (CFU survival); assay type: cell-based; settings: for killing: 20 minutes
Description: FIGS. 18 through 41 illustrate kill curve time-course experiments of stationary-phase and logarithmic-phase Pseudomonas aeruginosa bacterial suspensions exposed to PBS, to SS, to PBS in the presence of cloxacillin concentrations spanning from 512 μg/ml to 4096 μg/ml, or to SS in the presence of cloxacillin concentrations spanning from 512 μg/ml to 4096 μg/ml. Experiments were conducted at 22° C. or 35° C. over the course of 10, 20, or 60 minutes.
Pseudomonas aeruginosa cells were prepared as described above for MRSA with a few exceptions. The Pseudomonas aeruginosa cells were first grown in trypticase soy broth and then frozen in aliquots, which were later rescued into MH broth+2% NaCl for use as in the MRSA experiments. An appropriate volume of cells was added to 1 ml of comparative salt solutions in a 10 ml Falcon tube to yield a final concentration of ca. 1×10^8 colony forming units (CFU)/ml. Survival was determined for bacteria held for varied exposure times of up to 60 minutes in PBS, in SS, in PBS altered with cloxacillin concentrations ranging in doublings from 512 μg/ml to 4096 μg/ml, or in SS containing cloxacillin concentrations ranging in doublings from 512 μg/ml to 4096 μg/ml. The salt solutions were compared at a pH of 5.6 or 7.4. Survival was measured from samples held at 22° C. or 35° C. After exposure, samples of 50 μl were then withdrawn and a serial dilution series established. Cells were then plated on MH+2% NaCl agar plates and incubated at 22° C. or 35° C. for CFU formation, after which colonies were counted, surviving fractions recorded, and survival curves constructed. Triplicate experiments were conducted for each exposure condition. The cells were treated under static conditions in all cases and treatments were always made on cells held in salt solutions, never on cells held in growth media. In addition to logarithmic-phase cells, stationary-phase cells removed from growth cycle were also treated.

[1] = test system: methicillin-resistant Staphylococcus aureus (MRSA); test: kill curve time course of MRSA suspensions (CFU survival); assay type: cell-based
Description: FIGS. 1 through 17 illustrate kill curve time course experiments of stationary and logarithmic-phase MRSA bacterial suspensions exposed to PBS as well as denaturing SS at pH […] or pH 7.4 in the presence of cloxacillin concentrations spanning from 512 μg/ml to 4096 μg/ml. Experiments were conducted at 22° C. or 35° C. The completion time for the experiments ranged from 20 minutes to 24 hours.
For these experiments, the MRSA strain was grown overnight in Mueller-Hinton broth (MH)+2% NaCl at 35° C., subcultured into fresh media, and grown to mid-logarithmic phase. The cells were centrifuged and resuspended in pH 7.4 MH+2% NaCl to produce an OD600 nm known to indicate logarithmic-phase or stationary-phase of growth. An appropriate volume of cells was added to 1 ml of buffered SS in a 10 ml Falcon tube to yield a final concentration of ca. 1×10^8 colony forming units (CFU)/ml, except for the experiments of FIGS. 1-4 where the final concentration of ca. 1×10^6 CFU/ml applies. Survival was determined for bacteria held for varied exposure times of up to 24 hours in the SS or in PBS at pH 5.6 or pH 7.4, each altered with cloxacillin concentrations ranging in doublings from 512 μg/ml to 4096 μg/ml. Survival was measured from samples held at 22° C. and 35° C. After exposure, samples of 50 μl were then withdrawn and a serial dilution series established. Cells were then plated on MH+2% NaCl agar plates and incubated at 22° C. or 35° C. for CFU formation, after which colonies were counted, surviving fractions recorded, and survival curves constructed. Triplicate experiments were conducted for each exposure condition. The cells were treated under static conditions in all cases and treatments were always made on cells held in salt solutions, never on cells held in growth media. In addition to logarithmic-phase cells, stationary-phase cells removed from growth cycle were also treated.
Killing efficiency is evaluated as therapeutically sufficient according to the 10^−5 level of killing in 5 minutes specified by the British Standard BS EN 1276:1997 Chemical Disinfectants and Antiseptics, which is referred to as the gold standard for efficacy of bactericidal agents. Typically, agents meeting the British Standard are too toxic for human topical application. However, this is not a restriction for effective SS containing cloxacillin used in the illustrated embodiment.

Compound: Cc1onc(-c2ccccc2Cl)c1C(=O)N[C@@H]1C(=O)N2[C@@H]1SC(C)(C)[C@@H]2C(=O)O [cloxacillin]
- killing effect (Pseudomonas aeruginosa; FIG. 22, pH 7.4 PBS, 512 μg/ml cloxacillin, 22° C., logarithmic-phase, 20 minute): non-substantial killing effect
- killing effect (Pseudomonas aeruginosa; FIG. 23, pH 7.4 PBS, 1024 μg/ml cloxacillin, 22° C., logarithmic-phase, 20 minute): non-substantial killing effect
- killing effect (Pseudomonas aeruginosa; FIG. 24, pH 7.4 PBS, 2048 μg/ml cloxacillin, 22° C., logarithmic-phase, 20 minute): non-substantial killing effect
- killing effect (Pseudomonas aeruginosa; FIG. 25, pH 7.4 PBS, 4096 μg/ml cloxacillin, 22° C., logarithmic-phase, 20 minute): non-substantial killing effect
- killing effect (Pseudomonas aeruginosa; FIG. 26, pH 7.4 SS, 512 μg/ml cloxacillin, 22° C., logarithmic-phase, 20 minute): killing effect
- killing effect (Pseudomonas aeruginosa; FIG. 27, pH 7.4 SS, 1024 μg/ml cloxacillin, 22° C., logarithmic-phase, 20 minute): killing effect
- killing effect (Pseudomonas aeruginosa; FIG. 28, pH 7.4 SS, 2048 μg/ml cloxacillin, 22° C., logarithmic-phase, 10 minute): killing effect
- killing effect (Pseudomonas aeruginosa; FIG. 29, pH 7.4 SS, 4096 μg/ml cloxacillin, 22° C., logarithmic-phase, 10 minute): killing effect
- killing effect (Pseudomonas aeruginosa; FIG. 30, pH 7.4 PBS, 512 μg/ml cloxacillin, 35° C., logarithmic-phase, 20 minute): non-substantial killing effect
- killing effect (Pseudomonas aeruginosa; FIG. 31, pH 7.4 PBS, 1024 μg/ml cloxacillin, 35° C., logarithmic-phase, 20 minute): non-substantial killing effect
- killing effect (Pseudomonas aeruginosa; FIG. 32, pH 7.4 PBS, 2048 μg/ml cloxacillin, 35° C., logarithmic-phase, 20 minute): non-substantial killing effect
- killing effect (Pseudomonas aeruginosa; FIG. 33, pH 7.4 PBS, 4096 μg/ml cloxacillin, 35° C., logarithmic-phase, 20 minute): non-substantial killing effect
- killing effect (Pseudomonas aeruginosa; FIG. 34, pH 7.4 SS, 512 μg/ml cloxacillin, 35° C., logarithmic-phase, 20 minute): killing effect
- killing effect (Pseudomonas aeruginosa; FIG. 35, pH 7.4 SS, 1024 μg/ml cloxacillin, 35° C., logarithmic-phase, 20 minute): killing effect
- killing effect (Pseudomonas aeruginosa; FIG. 36, pH 7.4 SS, 2048 μg/ml cloxacillin, 35° C., logarithmic-phase, 20 minute): killing effect
- killing effect (Pseudomonas aeruginosa; FIG. 37, pH 7.4 SS, 4096 μg/ml cloxacillin, 35° C., logarithmic-phase, 20 minute): killing effect
- killing effect (Pseudomonas aeruginosa; FIG. 38, pH 7.4 SS, 512 μg/ml cloxacillin, 22° C., stationary-phase, 20 minute): killing effect
- killing effect (Pseudomonas aeruginosa; FIG. 39, pH 7.4 SS, 1024 μg/ml cloxacillin, 22° C., stationary-phase, 20 minute): killing effect
- killing effect (Pseudomonas aeruginosa; FIG. 40, pH 7.4 SS, 2048 μg/ml cloxacillin, 22° C., stationary-phase, 20 minute): killing effect
- killing effect (Pseudomonas aeruginosa; FIG. 41, pH 7.4 SS, 4096 μg/ml cloxacillin, 22° C., stationary-phase, 20 minute): killing effect
- killing (Pseudomonas aeruginosa; FIGS. 22-25, PBS pH 7.4, 512 to 4096 μg/ml cloxacillin, 22° C., logarithmic-phase): non-substantial killing
- efficiency of killing (Pseudomonas aeruginosa; FIGS. 26-29, SS pH 7.4, all concentrations 512 to 4096 μg/ml cloxacillin, 22° C., logarithmic-phase, 10 or 20 minutes): substantially efficient in killing
- killing (Pseudomonas aeruginosa; FIGS. 30-33, PBS pH 7.4, 512 to 4096 μg/ml cloxacillin, 35° C., logarithmic-phase): non-substantial killing
- killing (Pseudomonas aeruginosa; FIGS. 34-37, SS pH 7.4, 512 to 4096 μg/ml cloxacillin, 35° C., logarithmic-phase): substantial killing
- killing (Pseudomonas aeruginosa; FIGS. 38-41, SS pH 7.4, 512 to 4096 μg/ml cloxacillin, 22° C., stationary-phase): substantial killing
- killing effect ([1]; FIG. 1, pH 5.5 PBS, 1024 μg/ml cloxacillin, 22° C., logarithmic-phase MRSA, 20 minute): non-substantial killing effect; also recorded: not effective
- killing effect ([1]; FIG. 2, pH 7.4 PBS, 512 μg/ml cloxacillin, 22° C., logarithmic-phase MRSA, 20 minute): non-substantial killing effect; also recorded: not effective
- killing effect ([1]; FIG. 3, pH 5.5 SS, 1024 μg/ml cloxacillin, 22° C., logarithmic-phase MRSA, 20 minute): not effective; also recorded: non-substantial killing effect
- killing effect ([1]; FIG. 4, pH 7.4 SS, 512 μg/ml cloxacillin, 22° C., logarithmic-phase MRSA, 60 minute): substantial killing; also recorded: killing effect
- surviving fraction ([1]; FIG. 4, pH 7.4 SS, 512 μg/ml cloxacillin, 22° C., logarithmic-phase MRSA, all time points, no survivors on treated plates): < 2×10^−4
- killing effect ([1]; FIG. 5, pH 7.4 SS, 512 μg/ml cloxacillin, 22° C., stationary-phase MRSA, 60 minute): killing effect
- killing effect ([1]; FIG. 6, pH 7.4 SS, 1024 μg/ml cloxacillin, 22° C., stationary-phase MRSA, 60 minute): killing effect
- killing effect ([1]; FIG. 7, pH 7.4 SS, 2048 μg/ml cloxacillin, 22° C., stationary-phase MRSA, 60 minute): killing effect
- killing effect ([1]; FIG. 8, pH 7.4 SS, 4096 μg/ml cloxacillin, 22° C., stationary-phase MRSA, 60 minute): killing effect
- time in which the 10^−5 level of killing is achieved ([1]; FIG. 9, pH 7.4 SS, 4096 μg/ml cloxacillin, 22° C., stationary-phase MRSA): 3 hours
- killing effect ([1]; FIG. 9, pH 7.4 SS, 4096 μg/ml cloxacillin, 22° C., stationary-phase MRSA, 24 hour): killing effect
- killing effect ([1]; FIG. 10, pH 7.4 SS, 512 μg/ml cloxacillin, 35° C., logarithmic-phase MRSA, 20 minute): killing effect
- killing effect ([1]; FIG. 11, pH 7.4 SS, 1024 μg/ml cloxacillin, 35° C., logarithmic-phase MRSA, 20 minute): killing effect
- killing effect ([1]; FIG. 12, pH 7.4 SS, 2048 μg/ml cloxacillin, 35° C., logarithmic-phase MRSA, 20 minute): killing effect
- killing effect ([1]; FIG. 13, pH 7.4 SS, 4096 μg/ml cloxacillin, 35° C., logarithmic-phase MRSA, 20 minute): killing effect
- killing effect ([1]; FIG. 14, pH 7.4 SS, 512 μg/ml cloxacillin, 35° C., stationary-phase MRSA, 60 minute): killing effect
- killing effect ([1]; FIG. 15, pH 7.4 SS, 1024 μg/ml cloxacillin, 35° C., stationary-phase MRSA, 60 minute): killing effect
- killing effect ([1]; FIG. 16, pH 7.4 SS, 2048 μg/ml cloxacillin, 35° C., stationary-phase MRSA, 60 minute): killing effect
- killing effect ([1]; FIG. 17, pH 7.4 SS, 4096 μg/ml cloxacillin, 35° C., stationary-phase MRSA, 60 minute): killing effect
- efficiency of killing versus British Standard BS EN 1276:1997 (10^−5 level of killing in 5 minutes) ([1]; FIGS. 5-9, pH 7.4 SS, 512 to 4096 μg/ml cloxacillin, 22° C., stationary-phase MRSA): does not provide the 10^−5 level of killing in 5 minutes
- killing compared with 22° C. ([1]; FIGS. 10-13, pH 7.4 SS, 512 to 4096 μg/ml cloxacillin, 35° C., logarithmic-phase MRSA): killing is enhanced
- killing compared with 22° C. ([1]; FIGS. 14-17, pH 7.4 SS, 512 to 4096 μg/ml cloxacillin, 35° C., stationary-phase MRSA): enhanced killing
- efficiency of killing versus British Standard BS EN 1276:1997 (10^−5 level of killing in 5 minutes) ([1]; pH 7.4 SS with cloxacillin, 35° C., logarithmic-phase MRSA): approaches or exceeds the 10^−5 level of killing in 5 minutes
- efficiency of killing versus British Standard BS EN 1276:1997 (10^−5 level of killing in 5 minutes) ([1]; pH 7.4 SS with cloxacillin, 35° C., stationary-phase MRSA): approaches or exceeds the 10^−5 level of killing in 5 minutes
